# In patent US20200008426A1, “ACTIVE COMPOUND COMBINATIONS” (BAYER AKTIENGESELLSCHAFT, priority 2017, published 2020):
# Read-outs that look alike come from different tables or passages of the source.
# What was measured:
# Alternaria solani = assay: In vivo preventive test on Alternaria (tomatoes)
# Method: The plants are then placed in an incubation cabinet at approximately 20° C. and a relative atmospheric humidity of 100%.
# (§1) The test is evaluated 3 days after the inoculation.
# Colletotrichum coccodes = assay: In vivo preventive test on Colletotrichum (tomatoes); conditions: Table B1, 3 days after inoculation
# Method: as §1
# Phakopsora pachyrhizi = assay: In vivo preventive test on Phakopsora (soybeans); conditions: Table C2, 7 days after inoculation
# Pyrenophora teres = assay: In vitro-Test with Pyrenophora teres; format: cell-based
# Septoria tritici = assay: In vivo preventive Septoria tritici test (wheat); conditions: Zymoseptoria tritici, 504 h, 21 days after inoculation
# Method: After the spray coating has been dried, the plants are sprayed with a spore suspension of Septoria tritici.
# The test is evaluated 21 days after the inoculation.
# [1] = LogP by HPLC on reversed phase columns (EEC directive 79/831 Annex V.A8); conditions: for LogP [a]: LC-UV, acidic range, 0.1% formic acid in water and acetonitrile
# Method: Measurement of LogP values was performed according to EEC directive 79/831 Annex V.A8 by HPLC (High Performance Liquid Chromatography) on reversed phase columns with the following methods:
# Lambda-max-values were determined using UV-spectra from 200 nm to 400 nm and the peak values of the chromatographic signals.
# [2] = Alternaria solani, 72 h, read-out: Efficacy in % found
smiles,measurement,setting,value
"CC(C)C1CCC(Cc2ccc(Cl)cc2)C1(O)Cn1cncn1 (stereo not shown) [1.012 ipconazole, ipconazole]",Efficacy in % found,"Alternaria solani; Table A1, 2.5 ppm a.i., 3 days after inoculation",28%
same,Efficacy in % found,"Alternaria solani; Table A1, 5 ppm a.i., 3 days after inoculation",67%
same,Efficacy in % found,"Alternaria solani; Table A1, 10 ppm a.i., 3 days after inoculation",88%
"OC(Cc1ccccc1Cl)(Cn1nc[nH]c1=S)C1(Cl)CC1 (stereo not shown) [1.018 prothioconazole, prothioconazole]",Efficacy in % found,Colletotrichum coccodes; 2.5 ppm a.i.,38%
same,Efficacy in % found,Colletotrichum coccodes; 5 ppm a.i.,59%
same,Efficacy in % found,Colletotrichum coccodes; 10 ppm a.i.,79%
"CC(C)(C)C(O)(CCc1ccc(Cl)cc1)Cn1cncn1 (stereo not shown) [1.021 tebuconazole, tebuconazole]",pest or weed control at 2.5 ppm,"Alternaria solani; Alternaria solani, 72 h, Table A1, 2.5 ppm a.i., 3 days after inoculation, read-out: Efficacy in % found",5%
same,pest or weed control at 5 ppm,"Alternaria solani; Alternaria solani, 72 h, Table A1, 5 ppm a.i., 3 days after inoculation, read-out: Efficacy in % found",21%
same,pest or weed control at 10 ppm,"Alternaria solani; Alternaria solani, 72 h, Table A1, 10 ppm a.i., 3 days after inoculation, read-out: Efficacy in % found",74%
same,Efficacy in % found,Colletotrichum coccodes; 2.5 ppm a.i.,44%
same,Efficacy in % found,Colletotrichum coccodes; 5 ppm a.i.,44%
same,Efficacy in % found,Colletotrichum coccodes; 10 ppm a.i.,64%
"Cn1cc(C(=O)Nc2ccc(F)cc2-c2ccc(Cl)c(Cl)c2)c(C(F)F)n1 [2.002 bixafen, bixafen]",Efficacy in % found,Phakopsora pachyrhizi; 2.5 ppm a.i.,0%
same,Efficacy in % found,Phakopsora pachyrhizi; 5 ppm a.i.,0%
same,Efficacy in % found,Phakopsora pachyrhizi; 10 ppm a.i.,15%
"O=C(NCCc1ncc(C(F)(F)F)cc1Cl)c1ccccc1C(F)(F)F [2.005 fluopyram, fluopyram]",pest or weed control at 5 ppm,"Alternaria solani; Alternaria solani, 72 h, Table A2, 5 ppm a.i., 3 days after inoculation, read-out: Efficacy in % found",53%
same,pest or weed control at 10 ppm,"Alternaria solani; Alternaria solani, 72 h, Table A2, 10 ppm a.i., 3 days after inoculation, read-out: Efficacy in % found",61%
same,pest or weed control at 20 ppm,"Alternaria solani; Alternaria solani, 72 h, Table A2, 20 ppm a.i., 3 days after inoculation, read-out: Efficacy in % found",84%
"Cc1nn(C)c(F)c1C(=O)Nc1ccccc1C(C)CC(C)C (stereo not shown) [2.017 penflufen, penflufen]",Efficacy in % found,"Alternaria solani; Table A2, 5 ppm a.i., 3 days after inoculation",11%
same,Efficacy in % found,"Alternaria solani; Table A2, 10 ppm a.i., 3 days after inoculation",26%
same,Efficacy in % found,"Alternaria solani; Table A2, 20 ppm a.i., 3 days after inoculation",47%
same,Efficacy in % found,Phakopsora pachyrhizi; 5 ppm a.i.,8%
same,Efficacy in % found,Phakopsora pachyrhizi; 10 ppm a.i.,43%
same,Efficacy in % found,Phakopsora pachyrhizi; 20 ppm a.i.,83%
"CON=C(C(=O)OC)c1ccccc1CON=C(C)c1cccc(C(F)(F)F)c1 [3.020 trifloxystrobin, trifloxystrobin]",pest or weed control at 1 ppm,"Alternaria solani; Alternaria solani, 72 h, Table A2, 1 ppm a.i., 3 days after inoculation, read-out: Efficacy in % found",24%
same,pest or weed control at 2 ppm,"Alternaria solani; Alternaria solani, 72 h, Table A2, 2 ppm a.i., 3 days after inoculation, read-out: Efficacy in % found",42%
same,pest or weed control at 4 ppm,"Alternaria solani; Alternaria solani, 72 h, Table A2, 4 ppm a.i., 3 days after inoculation, read-out: Efficacy in % found",53%
"N#Cc1c[nH]cc1-c1cccc2c1OC(F)(F)O2 [13.001 fludioxonil, fludioxonil]",pest or weed control at 5 ppm,Alternaria solani; [2],77%
same,pest or weed control at 10 ppm,Alternaria solani; [2],85%
same,pest or weed control at 20 ppm,Alternaria solani; [2],95%
"CC1CC(C)(C)c2cccc(NC(=O)c3cn(C)nc3C(F)F)c21 (stereo not shown) [Example 2.027, 3-(difluoromethyl)-1-methyl-N-(1,1,3-trimethyl-2,3-dihydro-1H-inden-4-yl)-1H-pyrazole-4-carboxamide]",pest or weed control at 1 ppm,Alternaria solani; [2],0%
same,pest or weed control at 2 ppm,Alternaria solani; [2],3%
same,pest or weed control at 4 ppm,Alternaria solani; [2],11%
same,Efficacy in % found,Phakopsora pachyrhizi; 1 ppm a.i.,50%
same,Efficacy in % found,Phakopsora pachyrhizi; 2 ppm a.i.,95%
same,Efficacy in % found,Phakopsora pachyrhizi; 4 ppm a.i.,100%
same,Efficacy %,Pyrenophora teres; 4 ppm,43%
same,Efficacy %,Pyrenophora teres; 20 ppm,62%
same,pest or weed control at 62.5 ppm,"Septoria tritici; read-out: Efficacy in % found, 62.5 ppm a.i.",25%
same,pest or weed control at 125 ppm,"Septoria tritici; read-out: Efficacy in % found, 125 ppm a.i.",63%
CCC(O)(Cn1cncn1)c1cnc(Oc2ccc(C(F)(F)F)cc2)cc1C(F)(F)F (stereo not shown) [I.76],LogP [a],"[1]; Table 1, formula (I)",3.52^[a]
CC(O)(Cn1cncn1)c1ccc(Oc2ccc(F)cc2)nc1Oc1ccc(F)cc1 (stereo not shown) [I.77],LogP [a],"[1]; Table 1, formula (I)",3.13^[a]
CC(O)(Cn1cncn1)c1cnc(Oc2ccc(C(F)(F)F)cc2)cc1Cl (stereo not shown) [I.78],LogP [a],"[1]; Table 1, formula (I)",2.88^[a]
OC(Cn1cncn1)c1ccc(Oc2ccc(OC(F)(F)F)cc2)nc1C(F)(F)F (stereo not shown) [I.79],LogP [a],"[1]; Table 1, formula (I)",2.89^[a]
OC(Cn1cncn1)(c1ccc(Oc2ccc(Cl)cc2)nc1C(F)(F)F)C1CC1 (stereo not shown) [I.80],LogP [a],"[1]; Table 1, formula (I)",3.32^[a]
"OC(Cn1cncn1)(c1ccc(Oc2ccc(Br)cc2)nc1C(F)(F)F)C1CC1 (stereo not shown) [I.81, 1-[6-(4-bromophenoxy)-2-(trifluoromethyl)pyridin-3-yl]-1-cyclopropyl-2-(1H-1,2,4-triazol-1-yl)ethanol]",chromatographic logP,[1]; reversed-phase HPLC column,3.7
CC(O)(Cn1cncn1)c1cnc(Oc2ccc(Br)cc2)cc1C(F)F (stereo not shown) [I.82],LogP [a],"[1]; Table 1, formula (I)",2.78^[a]
OC(Cn1cncn1)(c1ccc(Oc2ccc(Br)cc2)nc1C(F)(F)F)C(F)(F)F (stereo not shown) [I.85],LogP [a],"[1]; Table 1, formula (I)",3.48^[a]
OC(Cn1cncn1)(c1ccc(Oc2ccc(C(F)(F)F)cc2)nc1C(F)(F)F)C1CC1 (stereo not shown) [I.87],LogP [a],"[1]; Table 1, formula (I)",3.57^[a]
OC(Cn1cncn1)c1cnc(Oc2ccc(C(F)(F)F)cc2)cc1Cl (stereo not shown) [I.88],LogP [a],"[1]; Table 1, formula (I)",2.64^[a]
CC(O)(Cn1cncn1)c1ccc(Oc2ccc(Cl)cc2F)nc1C(F)(F)F (stereo not shown) [I.89],LogP [a],"[1]; Table 1, formula (I)",3.15^[a]
OC(Cn1cncn1)c1ccc(Oc2ccc(Cl)cc2F)nc1C(F)(F)F (stereo not shown) [I.90],LogP [a],"[1]; Table 1, formula (I)",2.88^[a]
OC(Cn1cncn1)(c1ccc(Oc2ccc(C(F)F)cc2)nc1C(F)(F)F)C1CC1 (stereo not shown) [I.93],LogP [a],"[1]; Table 1, formula (I)",3.13^[a]
OC(Cn1cncn1)c1cnc(Oc2ccc(Cl)cc2)cc1C(F)F (stereo not shown) [I.94],LogP [a],"[1]; Table 1, formula (I)",2.13^[a]
FC(F)(F)c1nc(Oc2ccc(S(F)(F)(F)(F)F)cc2)ccc1C1(C2CC2)CO1 (stereo not shown) [IX.09],LogP [a],"[1]; Table 5, formula (IX)",5.22^[a]
CC(=O)c1cnc(Oc2ccc(S(F)(F)(F)(F)F)cc2)cc1C(F)(F)F [V.03],LogP [a],"[1]; Table 2, formula (V)",4.32^[a]
CC(=O)c1cnc(Oc2ccc(C(F)F)cc2)cc1C(F)(F)F [V.04],LogP [a],"[1]; Table 2, formula (V)",3.62^[a]
CC(=O)c1ccc(Oc2ccc(Cl)cc2)nc1C(F)F [V.05],LogP [a],"[1]; Table 2, formula (V)",3.35^[a]
